In the supplement of paper PMC10733146:

How the values were obtained:
Assay in all cases: viability relative to DMSO control (fraction); higher = less drug effect (more viable cells)
Conditions in all cases: 48 h
Nilotinib = compound: Cc1cn(-c2cc(NC(=O)c3ccc(C)c(Nc4nccc(-c5cccnc5)n4)c3)cc(C(F)(F)F)c2)cn1 [Nilotinib]
Procedure, shortened: (§1)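 Cells were incubated for 48 h at 37 °C and 5% CO2 in RPMI-1640 with penicillin/streptomycin, L-glutamine and human serum, at 4 × 10^4 cells per well in 384-well plates with compounds pre-plated at five concentrations, one well each. These were primary mononuclear tumour cells, fresh or cryopreserved, Ficoll-isolated from blood or bone marrow or obtained from processed lymph node. Viability values are CellTiter-Glo luminescence relative to the median of 16 inner DMSO wells.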

Vorinostat = compound: O=C(CCCCCCC(=O)Nc1ccccc1)NO [Vorinostat]
Procedure, shortened: as §1

BEZ235 = compound: Cn1c(=O)n(-c2ccc(C(C)(C)C#N)cc2)c2c3cc(-c4cnc5ccccc5c4)ccc3ncc21 [BEZ235]
Procedure, shortened: as §1

ONO-4059 = compound: CC#CC(=O)N1CC[C@@H](n2c(=O)n(-c3ccc(Oc4ccccc4)cc3)c3c(N)ncnc32)C1 [ONO-4059]
Procedure, shortened: as §1

Cladribine = compound: Nc1nc(Cl)nc2c1ncn2[C@H]1C[C@H](O)[C@@H](CO)O1 [Cladribine]
Procedure, shortened: as §1

[1] = compound: CC(C)(C)OC(=O)Nc1ccc(-c2cc(C(=O)NCCCCCCC(=O)NO)no2)cc1
Procedure, shortened: as §1

Birinapant = compound: CC[C@H](NC(=O)[C@H](C)NC)C(=O)N1C[C@@H](O)C[C@H]1Cc1c(-c2[nH]c3cc(F)ccc3c2C[C@@H]2C[C@H](O)CN2C(=O)[C@H](CC)NC(=O)[C@H](C)NC)[nH]c2cc(F)ccc12 [Birinapant]
Procedure, shortened: as §1

MLN-120B = compound: COc1c(Cl)cc2c([nH]c3cnccc32)c1NC(=O)c1cccnc1C [MLN-120B]
Procedure, shortened: as §1

ERK5-IN-1 = compound: CCOc1cc(C(=O)N2CCC(N3CCN(C)CC3)CC2)ccc1Nc1ncc2c(n1)N(C1CCCC1)c1ccccc1C(=O)N2C [ERK5-IN-1]
Procedure, shortened: as §1

[2] = compound: OCc1ccc(-c2ccc(-c3ccc(CO)s3)o2)s1
Procedure, shortened: as §1

EPZ-5676 = compound: CC(C)N(C[C@H]1O[C@@H](n2cnc3c(N)ncnc32)[C@H](O)[C@@H]1O)[C@H]1C[C@@H](CCc2nc3cc(C(C)(C)C)ccc3[nH]2)C1 [EPZ-5676]
Procedure, shortened: as §1

TMP269 = compound: O=C(NCC1(c2nc(-c3ccccc3)cs2)CCOCC1)c1cccc(-c2noc(C(F)(F)F)n2)c1 [TMP269]
Procedure, shortened: as §1

Obatoclax mesylate = compound: COC1=CC(c2cc3ccccc3[nH]2)=N/C1=C\c1[nH]c(C)cc1C [Obatoclax mesylate]
Procedure, shortened: as §1

BI6727 = compound: CC[C@@H]1C(=O)N(C)c2cnc(Nc3ccc(C(=O)N[C@H]4CC[C@H](N5CCN(CC6CC6)CC5)CC4)cc3OC)nc2N1C(C)C [BI6727]
Procedure, shortened: as §1

Quizartinib = compound: CC(C)(C)c1cc(NC(=O)Nc2ccc(-c3cn4c(n3)sc3cc(OCCN5CCOCC5)ccc34)cc2)no1 [Quizartinib]
Procedure, shortened: as §1

Test System: primary DLBCL patient cells (S082)
- viability (Nilotinib; 0.016 µM): 1.06
- viability (Nilotinib; 0.08 µM): 1.04
- viability (Nilotinib; 0.4 µM): 1.09
- viability (Nilotinib; 2 µM): 1.08
- viability (Nilotinib; 10 µM): 1.11
- viability (Vorinostat; 0.016 µM): 1.01
- viability (Vorinostat; 0.08 µM): 0.914
- viability (Vorinostat; 0.4 µM): 0.636
- viability (Vorinostat; 2 µM): 0.0663
- viability (Vorinostat; 10 µM): 0.0248
- viability (BEZ235; 0.024 µM): 0.931
- viability (BEZ235; 0.12 µM): 1.05
- viability (BEZ235; 0.6 µM): 0.958
- viability (BEZ235; 3 µM): 1.07
- viability (BEZ235; 15 µM): 0.737
- viability (ONO-4059; 0.0016 µM): 0.786
- viability (ONO-4059; 0.008 µM): 0.587
- viability (ONO-4059; 0.04 µM): 0.483
- viability (ONO-4059; 0.2 µM): 0.413
- viability (ONO-4059; 1 µM): 0.391
- viability (Cladribine; 0.024 µM): 0.858
- viability (Cladribine; 0.12 µM): 0.613
- viability (Cladribine; 0.6 µM): 0.476
- viability (Cladribine; 3 µM): 0.442
- viability (Cladribine; 15 µM): 0.399
- viability ([1]; 0.024 µM): 0.786
- viability ([1]; 0.12 µM): 0.499
- viability ([1]; 0.6 µM): 0.13
- viability ([1]; 3 µM): 0.0294
- viability ([1]; 15 µM): 0.0162
- viability (Birinapant; 0.0008 µM): 0.923
- viability (Birinapant; 0.004 µM): 1.04
- viability (Birinapant; 0.02 µM): 1.12
- viability (Birinapant; 0.1 µM): 1.09
- viability (Birinapant; 0.5 µM): 1.06
- viability (MLN-120B; 0.024 µM): 0.845
- viability (MLN-120B; 0.12 µM): 0.83
- viability (MLN-120B; 0.6 µM): 0.856
- viability (MLN-120B; 3 µM): 0.819
- viability (MLN-120B; 15 µM): 0.717
- viability (ERK5-IN-1; 0.024 µM): 0.854
- viability (ERK5-IN-1; 0.12 µM): 0.818
- viability (ERK5-IN-1; 0.6 µM): 0.621
- viability (ERK5-IN-1; 3 µM): 0.265
- viability (ERK5-IN-1; 15 µM): 0.224
- viability ([2]; 0.024 µM): 0.929
- viability ([2]; 0.12 µM): 1.02
- viability ([2]; 0.6 µM): 0.84
- viability ([2]; 3 µM): 0.904
- viability ([2]; 15 µM): 0.622
- viability (EPZ-5676; 0.0032 µM): 0.925
- viability (EPZ-5676; 0.016 µM): 1.1
- viability (EPZ-5676; 0.08 µM): 0.88
- viability (EPZ-5676; 0.4 µM): 0.953
- viability (EPZ-5676; 2 µM): 1.1
- viability (TMP269; 0.024 µM): 0.909
- viability (TMP269; 0.12 µM): 0.885
- viability (TMP269; 0.6 µM): 0.891
- viability (TMP269; 3 µM): 0.819
- viability (TMP269; 15 µM): 0.873
- viability (Obatoclax mesylate; 0.024 µM): 0.989
- viability (Obatoclax mesylate; 0.12 µM): 1.34
- viability (Obatoclax mesylate; 0.6 µM): 1.58
- viability (Obatoclax mesylate; 3 µM): 1.41
- viability (Obatoclax mesylate; 15 µM): 0.681
- viability (BI6727; 0.024 µM): 0.916
- viability (BI6727; 0.12 µM): 0.857
- viability (BI6727; 0.6 µM): 0.623
- viability (BI6727; 3 µM): 0.351
- viability (BI6727; 15 µM): 0.256
- viability (Quizartinib; 0.016 µM): 1.06
- viability (Quizartinib; 0.08 µM): 1.13
- viability (Quizartinib; 0.4 µM): 1.01
- viability (Quizartinib; 2 µM): 1.07
- viability (Quizartinib; 10 µM): 1.15

Test System: primary FL patient cells (S022)
- viability (Nilotinib; 0.016 µM): 0.974
- viability (Nilotinib; 0.08 µM): 1.1
- viability (Nilotinib; 0.4 µM): 0.985
- viability (Nilotinib; 2 µM): 0.933
- viability (Nilotinib; 10 µM): 1.03
- viability (Vorinostat; 0.016 µM): 0.992
- viability (Vorinostat; 0.08 µM): 0.932
- viability (Vorinostat; 0.4 µM): 0.874
- viability (Vorinostat; 2 µM): 0.795
- viability (Vorinostat; 10 µM): 0.26
- viability (BEZ235; 0.024 µM): 0.885
- viability (BEZ235; 0.12 µM): 0.977
- viability (BEZ235; 0.6 µM): 0.887
- viability (BEZ235; 3 µM): 0.827
- viability (BEZ235; 15 µM): 0.153
- viability (ONO-4059; 0.0016 µM): 1.05
- viability (ONO-4059; 0.008 µM): 1.02
- viability (ONO-4059; 0.04 µM): 1.06
- viability (ONO-4059; 0.2 µM): 0.985
- viability (ONO-4059; 1 µM): 1.13
- viability (Cladribine; 0.024 µM): 0.814
- viability (Cladribine; 0.12 µM): 0.827
- viability (Cladribine; 0.6 µM): 0.55
- viability (Cladribine; 3 µM): 0.447
- viability (Cladribine; 15 µM): 0.333
- viability ([1]; 0.024 µM): 0.921
- viability ([1]; 0.12 µM): 0.849
- viability ([1]; 0.6 µM): 0.939
- viability ([1]; 3 µM): 0.84
- viability ([1]; 15 µM): 0.204
- viability (Birinapant; 0.0008 µM): 0.862
- viability (Birinapant; 0.004 µM): 0.874
- viability (Birinapant; 0.02 µM): 0.965
- viability (Birinapant; 0.1 µM): 0.884
- viability (Birinapant; 0.5 µM): 0.903
- viability (MLN-120B; 0.024 µM): 0.946
- viability (MLN-120B; 0.12 µM): 0.96
- viability (MLN-120B; 0.6 µM): 0.916
- viability (MLN-120B; 3 µM): 0.896
- viability (MLN-120B; 15 µM): 0.758
- viability (ERK5-IN-1; 0.024 µM): 1.02
- viability (ERK5-IN-1; 0.12 µM): 0.957
- viability (ERK5-IN-1; 0.6 µM): 0.902
- viability (ERK5-IN-1; 3 µM): 0.951
- viability (ERK5-IN-1; 15 µM): 0.544
- viability ([2]; 0.024 µM): 0.946
- viability ([2]; 0.12 µM): 1.05
- viability ([2]; 0.6 µM): 0.969
- viability ([2]; 3 µM): 1.02
- viability ([2]; 15 µM): 0.512
- viability (EPZ-5676; 0.0032 µM): 0.873
- viability (EPZ-5676; 0.016 µM): 1
- viability (EPZ-5676; 0.08 µM): 0.884
- viability (EPZ-5676; 0.4 µM): 0.856
- viability (EPZ-5676; 2 µM): 0.96
- viability (TMP269; 0.024 µM): 1.22
- viability (TMP269; 0.12 µM): 0.977
- viability (TMP269; 0.6 µM): 1.2
- viability (TMP269; 3 µM): 0.958
- viability (TMP269; 15 µM): 0.915
- viability (Obatoclax mesylate; 0.024 µM): 1.04
- viability (Obatoclax mesylate; 0.12 µM): 0.971
- viability (Obatoclax mesylate; 0.6 µM): 0.71
- viability (Obatoclax mesylate; 3 µM): 0.486
- viability (Obatoclax mesylate; 15 µM): 0.109
- viability (BI6727; 0.024 µM): 1.04
- viability (BI6727; 0.12 µM): 0.901
- viability (BI6727; 0.6 µM): 0.959
- viability (BI6727; 3 µM): 0.785
- viability (BI6727; 15 µM): 0.178
- viability (Quizartinib; 0.016 µM): 1.01
- viability (Quizartinib; 0.08 µM): 1.04
- viability (Quizartinib; 0.4 µM): 1.01
- viability (Quizartinib; 2 µM): 1.21
- viability (Quizartinib; 10 µM): 0.998
